Source: patent US20260176320A1, “MODULATORS OF G-PROTEIN COUPLED RECEPTORS” (priority 2018, published 2026)
Read-outs that look alike come from different tables or passages of the source.

Assays:
Format in all cases: cell-based
GLP-1R [1] = biological target: T1, GLP-1R (Homo sapiens, UniProt P43220); assay: HitHunter cAMP assay (GLP-1R); details: cAMP; for Emax: read-out: (Emax) GLP-1R
Procedure, shortened: (§1)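 Suspension cells expressing each receptor (10,000 per well) in HBSS with 10 mM HEPES, 625 μM IBMX and 0.2% BSA were treated with a 22-point 2-fold agonist series in duplicate for 30 minutes at room temperature. cAMP was detected by antibody immunocompetition with luminescence read after overnight incubation.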

GIP-R = biological target: T2, GIP-R (Homo sapiens, UniProt P48546); assay: HitHunter cAMP assay (GIP-R); details: cAMP; for Emax: read-out: (Emax) GIP-R
T2 sequence (P48546 22-466): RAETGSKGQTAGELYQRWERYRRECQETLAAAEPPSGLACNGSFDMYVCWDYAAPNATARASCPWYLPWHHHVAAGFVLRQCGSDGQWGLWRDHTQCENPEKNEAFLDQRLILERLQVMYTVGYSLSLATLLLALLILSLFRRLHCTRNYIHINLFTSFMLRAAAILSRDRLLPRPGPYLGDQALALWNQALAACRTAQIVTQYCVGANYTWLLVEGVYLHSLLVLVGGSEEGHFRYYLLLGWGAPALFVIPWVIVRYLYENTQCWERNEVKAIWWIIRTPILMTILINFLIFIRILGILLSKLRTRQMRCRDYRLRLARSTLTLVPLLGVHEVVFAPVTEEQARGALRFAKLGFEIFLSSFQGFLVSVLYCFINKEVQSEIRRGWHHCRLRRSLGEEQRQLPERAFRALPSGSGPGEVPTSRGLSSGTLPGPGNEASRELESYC
Procedure, shortened: as §1

GLP-1R [2] = biological target: T1, GLP-1R; assay: PathHunter β-arrestin assay
Procedure, shortened: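 Cells seeded overnight, then medium replaced with medium containing 0.2% BSA; agonists added as 22-point 2-fold DMSO dilution series in duplicate and incubated 90 min at 37 °C, 5% CO2. After addition of detection solution, plates sat 3 h at room temperature in the dark; luminescence read.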

[3] = Table 3, read-out: EC50 GLP-1R/nM
[4] = Table 3A, read-out: EC50 GLP-1R/nM
[5] = Table 3, read-out: EC50 GIP-R/nM
[6] = Table 3A, read-out: EC50 GIP-R/nM
[7] = PathHunter β-arrestin assay, read-out: β-arrestin activity EC50

T1 sequence (P43220 24-463): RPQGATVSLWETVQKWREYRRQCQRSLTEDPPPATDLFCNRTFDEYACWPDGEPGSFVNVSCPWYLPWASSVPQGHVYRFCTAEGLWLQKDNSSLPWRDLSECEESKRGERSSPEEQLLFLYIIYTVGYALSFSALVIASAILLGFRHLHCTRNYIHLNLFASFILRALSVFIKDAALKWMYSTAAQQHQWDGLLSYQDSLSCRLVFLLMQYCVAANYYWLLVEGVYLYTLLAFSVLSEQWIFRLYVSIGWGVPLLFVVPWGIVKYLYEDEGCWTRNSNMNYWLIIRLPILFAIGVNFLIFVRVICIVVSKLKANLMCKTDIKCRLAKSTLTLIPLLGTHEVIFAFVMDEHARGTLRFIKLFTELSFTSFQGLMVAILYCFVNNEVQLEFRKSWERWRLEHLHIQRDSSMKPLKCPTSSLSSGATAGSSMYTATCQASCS

Compound	EC50 (GLP-1R [1]; EC50 GLP-1R/nM, Table 3) [nM]	EC50 (GLP-1R [1]; EC50 GLP-1R/nM, Table 3A) [nM]	Emax (GLP-1R [1]; Table 3) [%]	Emax (GLP-1R [1]; Table 3A) [%]	EC50 (GIP-R; EC50 GIP-R/nM, Table 3) [nM]	EC50 (GIP-R; EC50 GIP-R/nM, Table 3A) [nM]	Emax (GIP-R; Table 3) [%]	Emax (GIP-R; Table 3A) [%]	EC50 (GLP-1R [2]) [µM]	EC50 (GLP-1R [1]; [3]) [nM]	EC50 (GLP-1R [1]; [4]) [nM]	EC50 (GIP-R; [5]) [nM]	EC50 (GIP-R; [6]) [nM]	Emax at 1 µM (GIP-R; read-out: (Emax) GIP-R at 1 μM, Table 3, at 1 μM) [%]	EC50 (GLP-1R [2]; [7]) [µM]
CCCCCCCCCCCCCCCC(=O)N[C@@H](CCC(=O)NCCCC[C@H](NC(=O)[C@H](CO)NC(=O)[C@@H]1CCCN1C(=O)[C@@H]1CCCN1C(=O)[C@@H]1CCCN1C(=O)[C@H](C)NC(=O)CNC(=O)[C@H](CO)NC(=O)[C@H](CO)NC(=O)[C@@H]1CCCN1C(=O)CNC(=O)CNC(=O)[C@H](C)NC(=O)[C@H](CC(C)C)NC(=O)[C@H](CC(C)C)NC(=O)[C@H](Cc1c[nH]c2ccccc12)NC(=O)[C@H](CC(N)=O)NC(=O)[C@@H](NC(=O)[C@H](Cc1ccccc1)NC(=O)[C@H](CCC(=O)O)NC(=O)C(C)(C)NC(=O)[C@H](C)NC(=O)[C@H](C)NC(=O)[C@H](CCC(N)=O)NC(=O)[C@H](CCCCN)NC(=O)[C@H](CC(=O)O)NC(=O)[C@H](CC(C)C)NC(=O)[C@H](Cc1ccc(O)cc1)NC(=O)[C@@H](NC(=O)[C@H](CO)NC(=O)[C@H](Cc1ccc(O)cc1)NC(=O)[C@H](CC(=O)O)NC(=O)[C@H](CO)NC(=O)[C@@H](NC(=O)[C@H](Cc1ccccc1)NC(=O)[C@@H](NC(=O)CNC(=O)[C@H](CCC(=O)O)NC(=O)CSCC(=O)NCCN1C(=O)CC[C@@H](C)C1=O)[C@@H](C)O)[C@@H](C)O)[C@@H](C)CC)C(C)C)C(N)=O)C(=O)O [Compound 85]	1 to 10	1 to 10	103	103	0.1 to 1	0.1 to 1	83	83	> 1						
CC[C@H](C)[C@H](NC(=O)[C@H](CO)NC(=O)[C@H](Cc1ccc(O)cc1)NC(=O)[C@H](CC(=O)O)NC(=O)[C@H](CO)NC(=O)[C@@H](NC(=O)[C@H](Cc1ccccc1)NC(=O)[C@@H](NC(=O)CNC(=O)[C@H](CCC(=O)O)NC(=O)COCC(=O)NCCN1C(=O)CSC1=O)[C@@H](C)O)[C@@H](C)O)C(=O)N[C@@H](Cc1ccc(O)cc1)C(=O)N[C@@H](CC(C)C)C(=O)N[C@@H](CC(=O)O)C(=O)N[C@@H](CCCCN)C(=O)N[C@@H](CCC(N)=O)C(=O)N[C@@H](C)C(=O)N[C@@H](C)C(=O)NC(C)(C)C(=O)N[C@@H](CCC(=O)O)C(=O)N[C@@H](Cc1ccccc1)C(=O)N[C@H](C(=O)N[C@@H](CC(N)=O)C(=O)N[C@@H](Cc1c[nH]c2ccccc12)C(=O)N[C@@H](CC(C)C)C(=O)N[C@@H](CC(C)C)C(=O)N[C@@H](C)C(=O)NCC(=O)NCC(=O)N1CCC[C@H]1C(=O)N[C@@H](CO)C(=O)N[C@@H](CO)C(=O)NCC(=O)N[C@@H](C)C(=O)N1CCC[C@H]1C(=O)N1CCC[C@H]1C(=O)N1CCC[C@H]1C(=O)N[C@@H](CO)C(=O)N[C@@H](CCCCN)C(N)=O)C(C)C [Compound 194]			98	98						1 to 10	1 to 10	> 1000	> 1000	12	> 1
CCCCCCCCCCCCCCCC(=O)N[C@@H](CCC(=O)NCCCC[C@H](NC(=O)[C@H](CO)NC(=O)[C@@H]1CCCN1C(=O)[C@@H]1CCCN1C(=O)[C@@H]1CCCN1C(=O)[C@H](C)NC(=O)CNC(=O)[C@H](CO)NC(=O)[C@H](CO)NC(=O)[C@@H]1CCCN1C(=O)CNC(=O)CNC(=O)[C@H](C)NC(=O)[C@H](CC(C)C)NC(=O)[C@H](CC(C)C)NC(=O)[C@H](Cc1c[nH]c2ccccc12)NC(=O)[C@H](CC(N)=O)NC(=O)[C@@H](NC(=O)[C@H](Cc1ccccc1)NC(=O)[C@H](CCC(=O)O)NC(=O)C(C)(C)NC(=O)[C@H](C)NC(=O)[C@H](C)NC(=O)[C@H](CCC(N)=O)NC(=O)[C@H](CCCCN)NC(=O)[C@H](CC(=O)O)NC(=O)[C@H](CC(C)C)NC(=O)[C@H](Cc1ccc(O)cc1)NC(=O)[C@@H](NC(=O)[C@H](CO)NC(=O)[C@H](Cc1ccc(O)cc1)NC(=O)[C@H](CC(=O)O)NC(=O)[C@H](CO)NC(=O)[C@@H](NC(=O)[C@H](Cc1ccccc1)NC(=O)[C@@H](NC(=O)CNC(=O)[C@H](CCC(=O)O)NC(=O)CCCC(=O)NCCN1C(=O)CSC1=O)[C@@H](C)O)[C@@H](C)O)[C@@H](C)CC)C(C)C)C(N)=O)C(=O)O [Compound 155]			102	102			80	80		0.1 to 1	0.1 to 1	1 to 10	1 to 10		> 1
CC[C@H](C)[C@H](NC(=O)[C@H](CO)NC(=O)[C@H](Cc1ccc(O)cc1)NC(=O)[C@H](CC(=O)O)NC(=O)[C@H](CO)NC(=O)[C@@H](NC(=O)[C@H](Cc1ccccc1)NC(=O)[C@@H](NC(=O)CNC(=O)[C@H](CCC(=O)O)NC(=O)CSCC(=O)NCCn1c(C)cc(C)nc1=O)[C@@H](C)O)[C@@H](C)O)C(=O)N[C@@H](Cc1ccc(O)cc1)C(=O)N[C@@H](CC(C)C)C(=O)N[C@@H](CC(=O)O)C(=O)N[C@@H](CCCCN)C(=O)N[C@@H](CCC(N)=O)C(=O)N[C@@H](C)C(=O)N[C@@H](C)C(=O)NC(C)(C)C(=O)N[C@@H](CCC(=O)O)C(=O)N[C@@H](Cc1ccccc1)C(=O)N[C@H](C(=O)N[C@@H](CC(N)=O)C(=O)N[C@@H](Cc1c[nH]c2ccccc12)C(=O)N[C@@H](CC(C)C)C(=O)N[C@@H](CC(C)C)C(=O)N[C@@H](C)C(=O)NCC(=O)NCC(=O)N1CCC[C@H]1C(=O)N[C@@H](CO)C(=O)N[C@@H](CO)C(=O)NCC(=O)N[C@@H](C)C(=O)N1CCC[C@H]1C(=O)N1CCC[C@H]1C(=O)N1CCC[C@H]1C(=O)N[C@@H](CO)C(=O)N[C@@H](CCCCN)C(N)=O)C(C)C [Compound 137]	1 to 10	1 to 10	103	103	10 to 100		8		> 1						
CC[C@H](C)[C@H](NC(=O)[C@H](CO)NC(=O)[C@H](Cc1ccc(O)cc1)NC(=O)[C@H](CC(=O)O)NC(=O)[C@H](CO)NC(=O)[C@@H](NC(=O)[C@H](Cc1ccccc1)NC(=O)[C@@H](NC(=O)CNC(=O)[C@H](CCC(=O)O)NC(=O)CSCC(=O)NCCN1C(=O)CCCC1=O)[C@@H](C)O)[C@@H](C)O)C(=O)N[C@@H](Cc1ccc(O)cc1)C(=O)N[C@@H](CC(C)C)C(=O)N[C@@H](CC(=O)O)C(=O)N[C@@H](CCCCN)C(=O)N[C@@H](CCC(N)=O)C(=O)N[C@@H](C)C(=O)N[C@@H](C)C(=O)NC(C)(C)C(=O)N[C@@H](CCC(=O)O)C(=O)N[C@@H](Cc1ccccc1)C(=O)N[C@H](C(=O)N[C@@H](CC(N)=O)C(=O)N[C@@H](Cc1c[nH]c2ccccc12)C(=O)N[C@@H](CC(C)C)C(=O)N[C@@H](CC(C)C)C(=O)N[C@@H](C)C(=O)NCC(=O)NCC(=O)N1CCC[C@H]1C(=O)N[C@@H](CO)C(=O)N[C@@H](CO)C(=O)NCC(=O)N[C@@H](C)C(=O)N1CCC[C@H]1C(=O)N1CCC[C@H]1C(=O)N1CCC[C@H]1C(=O)N[C@@H](CO)C(=O)N[C@@H](CCCCN)C(N)=O)C(C)C [Compound 138]	1 to 10	1 to 10	87	87	1 to 10	1 to 10	81	81	> 1						
CCCCCCCCCCCCCCCC(=O)N[C@@H](CCC(=O)NCCCC[C@H](NC(=O)[C@H](CO)NC(=O)[C@@H]1CCCN1C(=O)[C@@H]1CCCN1C(=O)[C@@H]1CCCN1C(=O)[C@H](C)NC(=O)CNC(=O)[C@H](CO)NC(=O)[C@H](CO)NC(=O)[C@@H]1CCCN1C(=O)CNC(=O)CNC(=O)[C@H](C)NC(=O)[C@H](CC(C)C)NC(=O)[C@H](CC(C)C)NC(=O)[C@H](Cc1c[nH]c2ccccc12)NC(=O)[C@H](CC(N)=O)NC(=O)[C@@H](NC(=O)[C@H](Cc1ccccc1)NC(=O)[C@H](CCC(=O)O)NC(=O)C(C)(C)NC(=O)[C@H](C)NC(=O)[C@H](C)NC(=O)[C@H](CCC(N)=O)NC(=O)[C@H](CCCCN)NC(=O)[C@H](CC(=O)O)NC(=O)[C@H](CC(C)C)NC(=O)[C@H](Cc1ccc(O)cc1)NC(=O)[C@@H](NC(=O)[C@H](CO)NC(=O)[C@H](Cc1ccc(O)cc1)NC(=O)[C@H](CC(=O)O)NC(=O)[C@H](CO)NC(=O)[C@@H](NC(=O)[C@H](Cc1ccccc1)NC(=O)[C@@H](NC(=O)CNC(=O)[C@H](CCC(=O)O)NC(=O)C(C)(C)CNC(=O)CCN1CCCCC1=O)[C@@H](C)O)[C@@H](C)O)[C@@H](C)CC)C(C)C)C(N)=O)C(=O)O [Compound 4]			100	100			23	23		0.1 to 1	< 0.1	1 to 10	10 to 100		0.01 to 1
